Laboratory results published in patent publication US20060241123A1, “Substituted piperidine and piperazine derivatives as melanocortin-4 receptor modulators” (priority 2003, published 2006).
Where two headings read alike, the source gives them in different places.

Experiments:
[1] = biological target: T1, hMC4-R (Homo sapiens, UniProt P32245); experiment: Membrane binding assay, fluorescence polarization, fluorescence labeled NDP-alpha-MSH; conditions: HEK293 cell membrane preparations
T1 construct: expressed in transfected cells; host or cells: HEK293 cells
Method: A membrane binding assay is used to identify competitive inhibitors of fluorescence labeled NDP-alpha-MSH binding to HEK293 cell membrane preparations expressing human melanocortin receptors.
The test compound or unlabeled NDP-alpha-MSH is dispensed at varying concentrations to a 384 well microtiter plate. Fluorescence labeled NDP-alpha-MSH is dispensed at a single concentration, followed by addition of membrane preparations. The plate is incubated for 5 h at room temperature.
The degree of fluorescence polarization is determined with a fluorescence polarization microplate reader.

[2] = biological target: T1, hMC4-R; experiment: Functional cellular cAMP assay, fluorescence polarization, HEK293 cells; assay type: cell-based; conditions: for % activation functional assay: compared to stimulation with NDP-alpha-MSH; for EC50: cAMP production
Method: A functional cellular assay, based on competition between unlabeled CAMP and a fixed quantity of fluorescence labeled cAMP for a limited number of binding sites on a cAMP specific antibody, is used to discriminate melanocortin receptor agonists from antagonists by fluorescence polarization.
HEK293 cells expressing one of the human melanocortin receptors are transferred to 384 well microtiter plates, an appropriate amount of cAMP antibody is added, followed by the addition of different concentrations of the test compound to effect cAMP production. Cells are lysed and a fluorescence labeled cAMP conjugate is dispensed. The plate is read on a fluorescence polarization microplate reader and the amount of cAMP produced as a response to a test compound is compared to the production of cAMP resulting from stimulation with NDP-alpha-MSH. […]

[3] = test system: male Wistar rats; experiment: Spontaneous feeding paradigm, food intake in rats; assay type: in vivo, rat; conditions: for increase in cumulative food intake: compared to vehicle
Method: Food intake in rats is measured after i.p. or p.o. administration of the test compound (see e.g. Chen, A. S. et al. Transgenic Res 2000 April; 9(2):145-54).
Selected Examples of the present invention were active in the rat model at 3, 10 or 30 mg/kg after i.p. and p.o. administration of the test compound, respectively, using male Wistar rats (n=4−6).

[4] = test system: male Wistar rats; experiment: Lipopolysaccharide-induced cachexia in rats (acute model); assay type: in vivo, rat
Method: Prevention or amelioration of cachexia induced by either lipopolysaccharide (LPS) administration or by tumor growth is determined upon i.p. or p.o. administration of test compounds to rats (see e.g. Marks, D. L.; Ling, N and Cone, R. D. Cancer Res 2001 Feb. 15; 61 (4): 1432-8).
1-2 Hours prior to the onset of the dark-phase, individually housed, male Wistar rats (200-300 g) receive an ip or po application of test-compound or vehicle (2 ml/kg, 1-30 mg/kg) which is followed or preceded by an ip injection of either lipopolysaccharide (LPS) or saline (2 ml/kg, 100 μg/kg). Food intake, water intake and body weight are measured at 1-24 hour intervals and differences between experimental groups are evaluated.

[5] = biological target: T2, melanocortin-4 receptor (Homo sapiens, UniProt P32245); conditions: cited from earlier work; for % stimulation: Bioorg. Med. Chem. Lett. 2003, 13, 3793-3796
[6] = test system: rat; conditions: i.v. or p.o.; WO0074679; cited from earlier work
[7] = J. Med. Chem. 2002, 45, 4589-4593; cited from earlier work
[8] = biological target: T2, melanocortin-4 receptor; conditions: cited from earlier work
[9] = 3 mg/kg p.o., 4 hours following administration
[10] = 3 mg/kg p.o., 6 hours following administration
[11] = 3 mg/kg p.o., 7 hours following administration
[12] = read-out: EC50 activation of melanocortin-4 receptor, our assay system

T1 sequence (P32245 whole entry): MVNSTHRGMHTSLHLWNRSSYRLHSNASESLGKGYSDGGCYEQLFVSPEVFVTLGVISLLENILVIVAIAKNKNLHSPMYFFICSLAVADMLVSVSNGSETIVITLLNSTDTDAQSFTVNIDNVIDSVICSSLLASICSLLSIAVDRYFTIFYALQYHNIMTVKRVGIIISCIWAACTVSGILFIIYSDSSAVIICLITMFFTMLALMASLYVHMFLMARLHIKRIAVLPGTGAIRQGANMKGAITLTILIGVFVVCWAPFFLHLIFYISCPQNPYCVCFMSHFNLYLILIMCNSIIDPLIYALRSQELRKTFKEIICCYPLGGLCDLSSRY
T2 sequence (P32245 whole entry): as above

CS(=O)(=O)N1CC2(CCN(C(=O)[C@@H](Cc3ccc(Cl)cc3)NC(=O)c3cc(=O)c4ccccc4o3)CC2)c2ccccc21 [Example 1]
IC50 [1]: 80 nM
activation of the melanocortin-4 receptor in the functional assay [2]: does not activate
% activation functional assay [2]: no activation

CS(=O)(=O)Nc1ccccc1N1CCN(C(=O)[C@@H](Cc2ccc(Cl)cc2)NC(=O)c2cc(=O)c3ccccc3o2)CC1 [Example 8]
IC50 [1]: 300 nM
activation of the melanocortin-4 receptor in the functional assay [2]: does not activate
% activation functional assay [2]: no activation

O=C(N[C@H](Cc1ccc(Cl)cc1)C(=O)N1CCC(Cn2cncn2)(C2CCCCC2)CC1)c1cc(=O)c2ccccc2o1 [Example 15]
IC50 [1]: 4.4 nM
EC50 ([2]; read-out: hMC4-R functional assay EC50/nM): 700 nM
% activation functional assay [2]: 40%
food intake in spontaneous feeding paradigm ([3]; 3 mg/kg p.o.): significantly increase in food intake
increase in cumulative food intake [3, 9]: 290%
increase in cumulative food intake [3, 10]: 186%
increase in cumulative food intake [3, 11]: 355%

CC(C)(C)NC(=O)C1(C2CCCCC2)CCN(C(=O)[C@@H](Cc2ccc(Cl)cc2)NC(=O)c2cc(=O)c3ccccc3o2)CC1 [Example 66]
IC50 [1]: 6.8 nM
activation of the melanocortin-4 receptor in the functional assay [2]: no activation
% activation functional assay [2]: no activation
food intake in spontaneous feeding paradigm ([3]; 3 mg/kg p.o.): significant increase in food intake
increase in cumulative food intake ([3]; 3 mg/kg p.o., 2 hours following administration): 410%
increase in cumulative food intake [3, 9]: 500%
increase in cumulative food intake [3, 10]: 186%
increase in cumulative food intake [3, 11]: 272%
cumulative food intake in LPS-induced cachexia ([4]; 10 mg/kg p.o.): significant increase in cumulative food intake
increase in cumulative food intake ([4]; 10 mg/kg p.o. in combination with LPS, 4 hours following administration, compared to LPS and vehicle): 148%

CS(=O)(=O)NCc1ccccc1N1CCN(C(=O)[C@@H](Cc2ccc(Cl)cc2)NC(=O)c2cc(=O)c3ccccc3o2)CC1 [Example 110]
IC50 [1]: 790 nM
activation of the melanocortin-4 receptor in the functional assay [2]: does not activate
% activation functional assay [2]: no activation

O=C(N[C@H](Cc1ccc(Cl)cc1)C(=O)N1CCN(c2ccccc2C(=O)N2CCCCC2)CC1)c1cc(=O)c2ccccc2o1 [Example 113]
increase in cumulative food intake ([3]; 30 mg/kg p.o., 2 hours following administration): 192%
increase in cumulative food intake ([3]; 30 mg/kg p.o., 4 hours following administration): 159%
increase in cumulative food intake ([3]; 30 mg/kg p.o., 6 hours following administration): 191%
increase in cumulative food intake ([3]; 30 mg/kg p.o., 7 hours following administration): 200%

CS(=O)(=O)N1CC2(CCN(C(=O)C[C@@H](Cc3ccc(Cl)cc3)NC(=O)[C@H]3Cc4ccccc4CN3)CC2)c2ccccc21.Cl [Example 212]
increase in cumulative food intake ([3]; 10 mg/kg i.p., 2 hours following administration): 708%
increase in cumulative food intake ([3]; 10 mg/kg i.p., 4 hours following administration): 725%
increase in cumulative food intake ([3]; 10 mg/kg i.p., 6 hours following administration): 224%
increase in cumulative food intake ([3]; 10 mg/kg i.p., 8 hours following administration): 167%

O=C(NC(Cc1ccc(Cl)cc1)C(=O)N1CCC(Cn2cncn2)(C2CCCCC2)CC1)C1Cc2ccccc2CN1 (stereo not drawn) [WO0074679, example 2]
% activation functional assay [2]: 102%
melanocortin-4 receptor activation ([5]; at 10 μM, J. Med. Chem. 2002, 45, 4589-4593): activate the melanocortin-4 receptor
in vivo activity in reflexogenic erections model [6]: in vivo agonist
food intake [7]: significantly reduced

CS(=O)(=O)NCc1ccccc1N1CCN(C(=O)C(Cc2ccc(Cl)cc2)NC(=O)C2Cc3ccccc3CN2)CC1 (stereo not drawn) [WO02059108, example 56]
Ki ([8]; J. Med. Chem. 2004, 47, 744-755): 210 nM
EC50 ([5]; J. Med. Chem. 2004, 47, 744-755, read-out: EC50 activation of melanocortin-4 receptor): 48 nM

CS(=O)(=O)Nc1ccccc1N1CCN(C(=O)[C@@H](Cc2ccc(Cl)cc2)NC(=O)[C@H]2Cc3ccccc3CN2)CC1 [WO03009850, example 1, reference compound]
EC50 [2, 12]: 3700 nM
% activation functional assay [2]: 96%
% stimulation [5]: 100%

CS(=O)(=O)N1CC2(CCN(C(=O)[C@@H](Cc3ccc(Cl)cc3)NC(=O)[C@H]3Cc4ccccc4CN3)CC2)c2ccccc21 [WO9964002, example 13, reference compound]
IC50 [1]: 54 nM
EC50 [2, 12]: 1100 nM
% activation functional assay [2]: 110%
Ki ([8]; Current Topics Med. Chem. 2003, 3, 855-883): 10 nM
% stimulation [5]: 100%
